In brackets after ≈: the same amount, converted by molar mass.

This is an account of results in patent EP0576227A2, “2'-Deoxy-2',2'-difluoro(2,6,8-substituted) purine nucleosides having anti-viral and anti-cancer activity and intermediates” (ELI LILLY AND COMPANY, priority 1992, dated 1993).

This experiment relates to Hepatitis B Virus. The experiment can be described thus: Hepatitis B Virus Test (HBV DNA in supernatant of Hep10A cells, PCR / Southern blot). The conditions noted are these: 240 h. The format is cell-based, human Hepatitis B Virus (HBV). An excerpt:
Plasmids were constructed using standard recombinant DNA techniques; see Sambrook, J., et al., Molecular Cloning: A Laboratory Manual, 2nd Edition (1989), Cold Spring Harbor Press, Cold Spring Harbor, NY. Plasmid pTHBV contains a head-to-tail dimer of the human Hepatitis B Virus (HBV) genome, subtype adw, clone into the EcoR I site of pUC9. […] and subcloned into the Sal I site of pTHBV after a two base fill-in reaction with the Klenow fragment of E. coli DNA polymerase I.
HepG2 cells (human hepatoblastoma, ATCC HB 8065) were routinely passaged in growth medium consisting of EARLE'S minimal essential media (Grand Island Biological Company (GIBCO) Bethesda Research Laboratories (BRL), Life Technologies, Inc., Gathersburg, MD.) supplemented with sodium pyruvate, 10 percent fetal bovine serum, 100 units/ml penicillin, and 100 µg/ml streptomycin. Hep10A cells were derived from HepG2 cells. Briefly, HepG2 cells were seeded into 60 mm culture dishes in growth medium, and when approximately 50 percent confluent, were transfected with pTHBVneo using the calcium phosphate precipitation method described by Graham, F.L. and Van der Eb in Virology, 52, p 456-467 (1973). After four hours of post-transfection, the cells were shocked with 10 percent dimethylsulfoxide and 20 percent glucose for 5 minutes, after which they were allowed to recover for 24 horus. The transfected cells were passaged and reseeded in the presence of growth medium containing 800 µg/ml geneticin. The cells were monitored for the appearance of geneticin resistant cells. A genecitin resistant cell line was established, and routinely passaged in growth medium containing 400 µg/ml geneticin. This cell line will be referred to as Hep10A.
Hep10A cells were seeded into 96-well microtiter plates at a density of approximately 50,000 cells per well, allowed to grow to confluence, and maintained at confluence for 2 to 4 days to allow Hepatitus B Virus derivative HBV DNA levels to stabilize; see Sells, M.A., et al., J. Virol., 62, p 2836-2844 (1987) and Korba, B.E., et al., Antiviral Res., 15, p 217-228 (1991). At this time, cells were treated with 2'-deoxy-2'-fluoroarabino-5-iodouridine (FIAU) and the compound of Example 5 for 10 days, with daily changes of media containing fresh drug. FIAU was used as a positive control. On day 10, culture supernatant samples were taken and stored at 4°C until needed. PCR analysis was performed on supernatant samples using appropriate primers to amplify a 477 base pair fragment from the "a" determinant of the surface antigen gene of HBV subtype adw. Following eletrophoresis through agarose gels, the DNA was transferred to nylon membranes (Optiblot™, IBI, New Haven, CT) by capillary action (Southern, 1975) using 1X saline sodium citrate (SSC) (1X SSC=0.15 M NaCl, 0.015 M sodium citrate). After baking in vacuo for 30 minutes, the blots were hybridized for 15 to 18 hours to 1x10⁶ cpm/ml of […] the method of random priming (Feinberg and Vogelstein, 1983). Hybridization was carried out at 42°C using 50 percent N,N-dimethylformamide, 6X saline sodium phosphate ethylenediamine tetraacetic acid (SSPE), 1.0 percent sodium dodyl sulfate (SDS), and 50 µg/ml salmon sperm DNA (1X SSPE=0.18 M NaCl; […] NaH₂PO₄, pH 7.4; 1 mmol ethylene diamine tetraacetic acid (EDTA)). The hybridized blots were washed as follows: twice in 2X SSC/0.1 percent SDS at room temperature for 1 hour, once in 0.1X SSC/0.1 percent SDS at room temperature for 30 minutes, and once in 0.1x SSC/0.1 percent supplemented with SDS at 65°C for 15 minutes. The filters were exposed to x-ray film and quantitated by densitometry.

Setting [1] is: read-out: Percent Inhibition at Specified µg/ml conc.

As to `O=c1[nH]c(=O)n([C@@H]2O[C@H](CO)[C@@H](O)[C@@H]2F)cc1I` [FIAU, 2'-deoxy-2'-fluoroarabino-5-iodouridine, reference compound], under setting [1], the inhibition at 0.1 µg/mL came out at 10.8%, the inhibition at 1 µg/mL was 35.5%, the inhibition at 10 µg/mL is 65.3% and the inhibition at 100 µg/mL came to 81.7%. Also, the IC50 (read-out: concentration required to inhibit HBV DNA replication by 50 percent) came out at 5.4 µg/mL (≈ 14.5 µM).
